Laboratory results taken from patent US20230233569A1 (Revolution Medicines, Inc., priority 2020, published 2023).
Like-named read-outs stand apart in the source and are kept apart here.

Experiments:
KRAS G12D = KRAS G12D (Homo sapiens, UniProt P01116+P62937, G12D); test: Disruption of BRAF RBD interaction with Ras (FRET / MOA assay, with Cyclophilin A); format: biochemical
Text: (§1) This protocol may also be executed substituting other Ras proteins or nucleotides.
(§2) The purpose of this biochemical assay was to measure the ability of test compounds to facilitate ternary complex formation between a nucleotide-loaded K-Ras isoform and Cyclophilin A; the resulting ternary complex disrupts binding to a BRAF^RBD construct, inhibiting K-Ras signaling through a RAF effector. Data is reported as IC50 values.
(§3) Compound was present in plate wells as a 10-point 3-fold dilution series starting at a final concentration of 30 μM. After incubation at 25° C. for 3 hours, a mixture of Anti-His Eu-W1024 and anti-GST allophycocyanin was then added to assay sample wells at final concentrations of 10 nM and 50 nM, respectively, and the reaction incubated for an additional 1.5 hours. […] Compounds that facilitate disruption of a K-Ras:RAF complex were identified as those eliciting a decrease in the TR-FRET ratio relative to DMSO control wells.
as §2, with “BRAF^RBDD” for “BRAF^RBD”

NRAS G12C = NRAS G12C (Homo sapiens, UniProt P01111+P62937, G12C); test: as above; format: biochemical
Sequence of NRAS G12C (P01111 whole entry G12C): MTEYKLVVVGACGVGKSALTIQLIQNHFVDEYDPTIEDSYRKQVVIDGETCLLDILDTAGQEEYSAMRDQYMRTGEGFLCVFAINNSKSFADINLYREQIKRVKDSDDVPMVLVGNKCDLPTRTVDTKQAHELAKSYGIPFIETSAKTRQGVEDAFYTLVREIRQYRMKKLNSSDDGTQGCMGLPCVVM
Sequence of NRAS G12C (P62937 whole entry): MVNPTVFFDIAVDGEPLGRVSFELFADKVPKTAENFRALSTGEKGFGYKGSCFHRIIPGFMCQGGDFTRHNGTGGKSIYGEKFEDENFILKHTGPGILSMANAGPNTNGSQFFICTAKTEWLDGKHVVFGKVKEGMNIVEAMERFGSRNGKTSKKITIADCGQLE
Text: as §1, §2, §3
as §2, with “BRAF^RBDD” for “BRAF^RBD”

KRAS G13D = KRAS G13D (Homo sapiens, UniProt P01116+P62937, G13D); test: as above; format: biochemical
Sequence of KRAS G13D (P01116 1-169 isoform P01116-2 G13D limits assumed): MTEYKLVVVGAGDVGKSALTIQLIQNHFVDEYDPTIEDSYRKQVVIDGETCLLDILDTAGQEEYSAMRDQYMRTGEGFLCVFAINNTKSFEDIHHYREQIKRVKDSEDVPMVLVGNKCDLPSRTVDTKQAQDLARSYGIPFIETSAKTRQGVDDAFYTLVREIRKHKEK
Sequence of KRAS G13D (P62937 whole entry): as the sequence (P62937 whole entry) above
Text: as §1, §2, §3
as §2, with “BRAF^RBDD” for “BRAF^RBD”

KRAS WT = KRAS WT (Homo sapiens, UniProt P01116+P62937); test: as above; format: biochemical
Sequence of KRAS WT (P01116 1-169 isoform P01116-2 limits assumed): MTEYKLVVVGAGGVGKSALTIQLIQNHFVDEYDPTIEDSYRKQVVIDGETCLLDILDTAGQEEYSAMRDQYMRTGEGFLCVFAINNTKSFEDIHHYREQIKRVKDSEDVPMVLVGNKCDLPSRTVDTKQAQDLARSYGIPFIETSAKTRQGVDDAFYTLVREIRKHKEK
Sequence of KRAS WT (P62937 whole entry): as the sequence (P62937 whole entry) above
Text: as §1, §2, §3
as §2, with “BRAF^RBDD” for “BRAF^RBD”

KRAS G12V = KRAS G12V (Homo sapiens, UniProt P01116+P62937, G12V); test: as above; format: biochemical
Sequence of KRAS G12V (P01116 1-169 isoform P01116-2 G12V limits assumed): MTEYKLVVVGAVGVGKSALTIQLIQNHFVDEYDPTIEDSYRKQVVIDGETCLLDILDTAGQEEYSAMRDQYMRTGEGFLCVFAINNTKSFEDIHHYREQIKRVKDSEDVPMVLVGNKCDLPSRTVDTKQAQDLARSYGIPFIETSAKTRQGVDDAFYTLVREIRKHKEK
Sequence of KRAS G12V (P62937 whole entry): as the sequence (P62937 whole entry) above
Text: as §1, §2, §3
as §2, with “BRAF^RBDD” for “BRAF^RBD”

KRAS G12S = KRAS G12S (Homo sapiens, UniProt P01116+P62937, G12S); test: as above; format: biochemical
Sequence of KRAS G12S (P01116 1-169 isoform P01116-2 G12S limits assumed): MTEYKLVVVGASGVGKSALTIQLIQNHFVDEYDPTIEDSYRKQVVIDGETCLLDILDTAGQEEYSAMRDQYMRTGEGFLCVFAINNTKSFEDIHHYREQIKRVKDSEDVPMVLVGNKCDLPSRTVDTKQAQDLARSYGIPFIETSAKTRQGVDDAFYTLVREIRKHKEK
Sequence of KRAS G12S (P62937 whole entry): as the sequence (P62937 whole entry) above
Text: as §1, §2, §3
as §2, with “BRAF^RBDD” for “BRAF^RBD”

KRAS G13C = KRAS G13C (Homo sapiens, UniProt P01116+P62937, G13C); test: as above; format: biochemical
Sequence of KRAS G13C (P01116 1-169 isoform P01116-2 G13C): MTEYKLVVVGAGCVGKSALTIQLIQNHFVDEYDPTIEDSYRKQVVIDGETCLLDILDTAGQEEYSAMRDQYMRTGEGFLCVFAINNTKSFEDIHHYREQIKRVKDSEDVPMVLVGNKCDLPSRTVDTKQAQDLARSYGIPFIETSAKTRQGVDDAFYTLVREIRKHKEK
Sequence of KRAS G13C (P62937 whole entry): as the sequence (P62937 whole entry) above
Text: as §1, §2, §3
as §2, with “BRAF^RBDD” for “BRAF^RBD”

KRAS G12C = KRAS G12C (Homo sapiens, UniProt P01116+P62937, G12C); test: as above; format: biochemical
Sequence of KRAS G12C (P01116 1-169 isoform P01116-2 G12C): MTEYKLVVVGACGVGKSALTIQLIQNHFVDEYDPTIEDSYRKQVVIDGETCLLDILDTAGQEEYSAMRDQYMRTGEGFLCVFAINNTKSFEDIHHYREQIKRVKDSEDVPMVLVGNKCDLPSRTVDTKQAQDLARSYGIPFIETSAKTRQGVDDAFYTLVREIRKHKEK
Sequence of KRAS G12C (P62937 whole entry): as the sequence (P62937 whole entry) above
Text: as §1, §2, §3
as §2, with “BRAF^RBDD” for “BRAF^RBD”

NCI-H358 (K-Ras G12C) = test: CellTiter-Glo cell viability assay, 5-day treatment; format: cell-based; conditions: Homo sapiens, NCI-H358, 120 h, 5-day treatment; read-out: H358 Cell Viability assay data (K-Ras G12C, IC50)
Protocol: Protocol: CellTiter-Glo® Cell Viability Assay
Note—The following protocol describes a procedure for monitoring cell viability of K-Ras mutant cancer cell lines in response to a compound of the invention. Other RAS isoforms may be employed, though the number of cells to be seeded will vary based on cell line used.
(§4) Test compounds (132.5 nL) were directly dispensed into the assay plates containing cells. […] On day 5, assay plates and their contents were equilibrated to room temperature for approximately 30 minutes. […] Luminescence was measured using the PerkinElmer Enspire. Data were normalized by the following: (Sample signal/Avg. DMSO)*100. The data were fit using a four-parameter logistic fit.
as §4, with “nl)” for “nL)”

[1] = read-out: KRAS G12D FRET data, IC50
[2] = NRAS G12C, read-out: NRAS G12C FRET data IC50
[3] = KRAS G13D, read-out: KRAS G13D FRET data IC50
[4] = KRAS WT, read-out: KRAS WT FRET data IC50
[5] = KRAS G12V, read-out: KRAS G12V FRET data IC50
[6] = read-out: KRAS G12S FRET data, IC50
[7] = read-out: KRAS G13C FRET data, IC50
[8] = read-out: KRAS G12C FRET data, IC50
[9] = NRAS G12C FRET data IC50, NRAS G12C
[10] = KRAS G13D FRET data IC50, KRAS G13D
[11] = KRAS WT FRET data IC50, KRAS WT
[12] = KRAS G12V FRET data IC50, KRAS G12V

Sequence of KRAS G12D (P01116 1-169 isoform P01116-2 G12D limits assumed): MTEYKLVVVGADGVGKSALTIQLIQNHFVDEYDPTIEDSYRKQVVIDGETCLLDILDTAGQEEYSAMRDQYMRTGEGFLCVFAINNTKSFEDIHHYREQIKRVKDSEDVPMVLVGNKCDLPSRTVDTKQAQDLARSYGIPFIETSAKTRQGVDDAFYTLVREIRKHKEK
Sequence of KRAS G12D (P62937 whole entry): as the sequence (P62937 whole entry) above

IC50 (KRAS G12D; [1]) [nM] | IC50 (NRAS G12C; [2]) [nM] | IC50 (KRAS G13D; [3]) [nM] | IC50 (KRAS WT; [4]) [nM] | IC50 (KRAS G12V; [5]) [nM] | IC50 (KRAS G12S; [6]) [nM] | IC50 (KRAS G13C; [7]) [nM] | IC50 (KRAS G12C; [8]) [nM] | IC50 (NCI-H358 (K-Ras G12C)) [nM] | SMILES | IC50 (KRAS G12D; KRAS G12D FRET data, IC50) [nM] | IC50 (NRAS G12C; [9]) [nM] | IC50 (KRAS G13D; [10]) [nM] | IC50 (KRAS WT; [11]) [nM] | IC50 (KRAS G12V; [12]) [nM] | IC50 (KRAS G12S; KRAS G12S FRET data, IC50) [nM] | IC50 (KRAS G13C; KRAS G13C FRET data, IC50) [nM] | IC50 (KRAS G12C; KRAS G12C FRET data, IC50) [nM]
100 to 1000 | 100 to 1000 | 100 to 1000 | 100 to 1000 | 1000 to 10000 | 100 to 1000 | 100 to 1000 | 100 to 1000 | > 10000 | CCn1c(-c2cccnc2COC)c2c3cc(ccc31)-c1cc(O)cc(c1)C[C@H](NC(=O)[C@H](C(C)C)N(C)C(=O)[C@H]1CCNC1)C(=O)N1CCC[C@H](N1)C(=O)OCC(C)(C)C2 [Example A32] |  |  |  |  |  |  |  | 
1000 to 10000 | 100 to 1000 | 100 to 1000 | 100 to 1000 | 100 to 1000 | 100 to 1000 | 100 to 1000 | 100 to 1000 | 100 to 1000 | CCn1c(-c2cnccc2COC)c2c3cc(ccc31)-c1cc(O)cc(c1)C[C@H](NC(=O)[C@H](C(C)C)N(C)C(=O)[C@H]1CCN(S(=O)(=O)N3CC(N)C3)C1)C(=O)N1CCC[C@H](N1)C(=O)OCC(C)(C)C2 [Example A35] |  |  |  |  |  |  |  | 
1000 to 10000 | 100 to 1000 | 1000 to 10000 | 100 to 1000 | 100 to 1000 | 1000 to 10000 | 1000 to 10000 | 100 to 1000 | 1000 to 10000 | CCn1c(-c2cnccc2COC)c2c3cc(ccc31)-c1cc(O)cc(c1)C[C@H](NC(=O)[C@H](C(C)C)N1CCCCC1=O)C(=O)N1CCC[C@H](N1)C(=O)OCC(C)(C)C2 [Example A44] |  |  |  |  |  |  |  | 
> 10000 | 1000 to 10000 | 1000 to 10000 | 1000 to 10000 | 1000 to 10000 | 1000 to 10000 | 1000 to 10000 | 100 to 1000 | 1000 to 10000 | CCn1c(-c2cnccc2COC)c2c3cc(ccc31)-c1cc(O)cc(c1)C[C@H](NC(=O)[C@@H](OC(=O)N(C)C)C(C)C)C(=O)N1CCC[C@H](N1)C(=O)OCC(C)(C)C2 [Example A53] |  |  |  |  |  |  |  | 

SMILES | IC50 (KRAS G12D; [1]) [nM] | IC50 (NRAS G12C; [2]) [nM] | IC50 (KRAS G13D; [3]) [nM] | IC50 (KRAS WT; [4]) [nM] | IC50 (KRAS G12V; [5]) [nM] | IC50 (KRAS G12S; [6]) [nM] | IC50 (KRAS G13C; [7]) [nM] | IC50 (KRAS G12C; [8]) [nM] | IC50 (NCI-H358 (K-Ras G12C)) [nM] | IC50 (KRAS G12D; KRAS G12D FRET data, IC50) [nM] | IC50 (NRAS G12C; [9]) [nM] | IC50 (KRAS G13D; [10]) [nM] | IC50 (KRAS WT; [11]) [nM] | IC50 (KRAS G12V; [12]) [nM] | IC50 (KRAS G12S; KRAS G12S FRET data, IC50) [nM] | IC50 (KRAS G13C; KRAS G13C FRET data, IC50) [nM] | IC50 (KRAS G12C; KRAS G12C FRET data, IC50) [nM]
CCn1c(-c2cnccc2COC)c2c3cc(ccc31)-c1cc(O)cc(c1)C[C@H](NC(=O)[C@H](C(C)C)N(C)C(=O)[C@H]1CCN(C(=O)N(C)C)C1)C(=O)N1CCC[C@H](N1)C(=O)OCC(C)(C)C2 [Example A42, (3S)-N3-[(1S)-1-{[(8S,14S)-22-ethyl-4-hydroxy-21-[4-(methoxymethyl)pyridin-3-yl]-18,18-dimethyl-9,15-dioxo-16-oxa-10,22,28-triazapentacyclo[18.5.2.1^2,6.1^10,14.0^23,27]nonacosa-1(26),2,4,6(29),20,23(27),24-heptaen-8-yl]carbamoyl}-2-methylpropyl]-N1,N1,N3-trimethylpyrrolidine-1,3-dicarboxamide] |  |  |  |  |  |  |  |  | 1000 to 10000 | > 10000 | 1000 to 10000 | 1000 to 10000 | 1000 to 10000 | 1000 to 10000 | 1000 to 10000 | 1000 to 10000 | 100 to 1000
CCn1c(-c2cnccc2COC)c2c3cc(ccc31)-c1cc(O)cc(c1)C[C@H](NC(=O)[C@H](C(C)C)N(C)C(=O)OC1CCOC1)C(=O)N1CCC[C@H](N1)C(=O)OCC(C)(C)C2 (stereo partly drawn) [Example A50, oxolan-3-yl-N-[(1S)-1-{[(8S,14S)-22-ethyl-4-hydroxy-21-[4-(methoxymethyl)pyridin-3-yl]-18,18-dimethyl-9,15-dioxo-16-oxa-10,22,28-triazapentacyclo[18.5.2.1^2,6.1^10,14.0^23,27]nonacosa-1(26),2,4,6(29),20,23(27),24-heptaen-8-yl]carbamoyl}-2-methylpropyl]-N-methylcarbamate] |  |  |  |  |  |  |  |  | 1000 to 10000 | 1000 to 10000 | 1000 to 10000 | 1000 to 10000 | 100 to 1000 | 1000 to 10000 | 1000 to 10000 | 1000 to 10000 | 100 to 1000
